Experiments:
male dd-strain mice = assay: Acute toxicity test; type: in vivo; conditions: mortality for 7 days after administration
Procedure: Groups of male dd-strain mice (each croup consisting of five mice) weighing 20 + 1 g are used. Compound I are administered orally (po : 0.3 mg/g) or intraperitoneally (ip : 0.1 mg/g). The MLD lethal dose) is calculated from the mortality for 7 days after the administration to obtain the results given in Table 1.

PCA response = assay: Antiasthmatic activity test: passive cutaneous anaphylaxis response (PCA response); type: in vivo, Wistar strain male rats; conditions: Rattus norvegicus, rats; for minimal effective dose: po, minimum effective dose, depressing ratio of 50% or more counts as positive, read-out: MED; for inhibition in vivo at 10 mg/kg: Dose 10 mg/Kg PO; for inhibition in vivo at 25 mg/kg: Dose 25 mg/Kg PO; for inhibition in vivo at 50 mg/kg: Dose 50 mg/Kg PO; for inhibition in vivo at 100 mg/kg: Dose 100 mg/Kg PO; for inhibition in vivo at 2.5 mg/kg: Dose 2.5 mg/Kg PO; for inhibition in vivo at 5 mg/kg: Dose 5 mg/Kg PO
Procedure: Antiasthmatic activity is evaluated according to passive cutaneous anaphylaxis response (PCA response). Antiserum is collected from Wistar strain male rats weighing 200 to 250 g. PCA response is evaluated using Wistar strain male rats weighing 100 to 120 g.
One mg of egg albumin is dissolved in 0.5 ml of pertussisdiphtheria mixed vaccine, and the resulting solution is mixed with 0.5 ml of incomplete adjuvant. The resulting emulsion is used as antigen and administered to rats subcutaneously through the sole. On the 12th day after the administration, heads of the rats are cut to collect blood. Thus, antiserum is prepared.
Upon evaluating antiasthmatic activity, concentration of the antiserum is adjusted so that diameter of blue-dyed portion is about 8 to about 10 mm.
Six rats are used per group. 0.05 ml of the antiserum is intracutaneously administered to each of the previously back-shaved rats to sensitize. After 17 hours, compound I or the solutions thereof (physiological salt solution or CMC solution) are respectively administered and, after 60 minutes, an antigen mixture (1% Evans' Blue physiological salt solution containing 0.2% egg albumin) is injected intravenously in an amount of 0.5 ml/100 g to induce PCA. response. After 30 minutes, rats are choked to death followed by cutting out skin to measure the diameter of blue-dyed portion. The results are evaluated by awarding a score according to the diameter of blue―dved portion. Furthermore, ratios of the diameters to that of solvent (psysiological salt solution or CMC) administered group are snowing a depressing ratio of 50% or more calculated according to the following formula are concluded to show positive antiasthmatic activity. Also, the minimum effective dose (MED) is determined from the results with respective doses to compare the strength of entrasthamatis activity.

[1] = given 60 minutes before antigen, read-out: depressing ratio

Structure (SMILES) | MLD (male dd-strain mice; ip) [mg/kg] | MLD (male dd-strain mice; po) [mg/kg] | minimal effective dose (PCA response) [mg/kg] | inhibition in vivo at 10 mg/kg (PCA response; [1]) [%] | inhibition in vivo at 25 mg/kg (PCA response; [1]) [%] | inhibition in vivo at 50 mg/kg (PCA response; [1]) [%] | inhibition in vivo at 100 mg/kg (PCA response; [1]) [%] | inhibition in vivo at 2.5 mg/kg (PCA response; [1]) [%] | inhibition in vivo at 5 mg/kg (PCA response; [1]) [%] | inhibition in vivo at 1 mg/kg (PCA response; Dose 1 mg/Kg PO, given 60 minutes before antigen, read-out: depressing ratio) [%]
CCN(CC)CCSC1c2ccccc2COc2ccc(F)cc21 (stereo not drawn) [Compound 6, 2-fluoro-11-[2-(diethylamino)ethyl]thio-6,11-dihydrodibenz[b,e]oxepin] | >100 | >300 | 25 | 3 | 84 | 100 | 100 |  |  | 
CCc1ccc2c(c1)C(SCCN(C)C)c1ccccc1CO2 (stereo not drawn) [Compound 7, 2-ethyl-11-[2-(dimethylamino)ethyl]thio-6,11-dihydrodibenz[b,e]oxepin] | >100 | >300 | 5 | 100 | 100 | 100 | 100 | 30 | 81 | 
CCN(CC)CCSC1c2ccccc2COc2c(C)cccc21 (stereo not drawn) [Compound 3, 4-methyl-11-[2-(diethylamino)ethyl]thio-6,11-dihydrodibenz[b,e]oxepin] | >100 | >300 | 100 |  |  | 14 | 52 |  |  | 
CCN(CC)CCSC1c2ccccc2COc2ccc(C)cc21 (stereo not drawn) [Compound 2, 2-methyl-11-[2-(diethylamino)ethyl]thio-6,11-dihydrodibenz[b,e]oxepin] | >100 | >300 | 10 | 52 | 100 | 100 | 100 | 20 | 40 | 
CC(C)N(CCSC1c2ccccc2COc2ccc(F)cc21)C(C)C (stereo not drawn) [Compound 10, 2-fluoro-11-[2-(diisopropylamino)ethyl]thio-6,11-dihydrodibenz[b,e]oxepin] | >100 | >300 | 100 | 0 | 11 | 11 | 73 |  |  | 
CCc1ccc2c(c1)C(SCCN(C(C)C)C(C)C)c1ccccc1CO2 (stereo not drawn) [Compound 9, 2-ethyl-11-[2-(diisopropylamino)ethyl]thio-6,11-dihydrodibenz[b,e]oxepin] | >100 | >300 | 25 | 22 | 67 | 100 | 100 |  |  | 
CCN(CC)CCSC1c2ccccc2COc2ccc(Cl)cc21 (stereo not drawn) [Compound 4, 2-chloro-11-[2-(diethylamino)ethyl]thio-6,11-dihydrodibenz[b,e]oxepin] | >100 | >300 | 50 | 10 | 46 | 100 | 100 |  |  | 
CN(C)CCSC1c2ccccc2COc2ccc(F)cc21 (stereo not drawn) [Compound 8, 2-fluoro-11-[2-(dimethylamino)ethyl]thio-6,11-dihydrodibenz[b,e]oxepin] | >100 | >300 | 25 | 33 | 100 | 100 | 100 |  | 23 | 
Cc1ccc2c(c1)OCc1ccccc1C2SCCN(C)C (stereo not drawn) [Compound 11, 3-methyl-11-[2-(dimethylamino)ethyl]thio-6,11-dihydrodibenz[b,e]oxepin] | >100 | >300 | 50 | 0 | 28 | 61 | 61 |  |  | 
CCc1ccc2c(c1)C(SCCN(CC)CC)c1ccccc1CO2 (stereo not drawn) [Compound 5, 2-ethyl-11-[2-(diethylamino)ethyl]thio-6,11-dihydrodibenz[b,e]oxepin] | 100 | >300 | 10 | 56 | 100 | 100 | 100 |  | 36 | 
Cc1ccc2c(c1)C(SCCN(C)C)c1ccccc1CO2 (stereo not drawn) [Compound 1, 2-methyl-11-[2-(dimethylamino)ethyl]thio-6,11-dihydrodibenz[b,e]oxepin] | >100 | >300 | 2.5 | 100 | 100 | 100 | 100 | 81 | 100 | 49
